Results as given in patent US10204206B2, “Modelling of the action of an optical fiber in photodynamic therapy treatment, and assistance in the planning of said treatment” (STEBA MAOR SA, priority 2010, dated 2019).

System: prostate
Assay: Clinical trials of photodynamic therapy of prostate cancer: action radius of the optical fiber fitted to the actual necrotic volume
Format: in vivo, patients
Details: 28 clinical trials; 4 mg/kg; optical fiber at 763 nm; insertion lengths 15 to 40 mm; accuracy 1.08 mm
From the text: In this study, the Applicant has validated its modeling method for the use of an optical fiber with specific wavelength of 763 nm, in association with the WST11 photosensitive agent, for the treatment of prostate cancer. It is easily understood that the principles of modeling, as well as those of assistance in planning resulting from this modeling, can be used for other combinations of optical fibers and photosensitive agents, and applied to the treatment of other organs.
In reference to FIG. 2, the modeling method 100 thus includes a preliminary step 110 of constructing a database of results from clinical trials conducted previously on a plurality of patients using the same photosensitive material at the same dosage, such as 4 mg/kg of WST11, associated with at least one optical fiber that we seek to model. This construction consists of storing one record per patient in the database with at least the following elements: […]
Once steps 120 and 130 have been carried out, the only thing left to do is to determine, in a step 140 referenced in FIG. 2, the action radius R of an optical fiber by correlation, for each patient in the database, with the total theoretical action volume calculated with the measured volume of the actual necrotic area. […]

## CC[C@H]1c2cc3[n-]c(c(CC(=O)OC)c4nc(cc5[n-]c(cc(n2)[C@@H]1C)c(C(C)=O)c5C)[C@@H](C)[C@@H]4CCC(=O)[O-])c(C(=O)NCCS(=O)(=O)[O-])c3C.[H+].[H+].[Pd+2] [WST11]
  average action radius R of an optical fiber (value for which theoretical volume was closest to the volume of the actual necrotic area): 7.49 mm
